Values quoted from earlier work as cited in US20220095612A1, “MICRONUTRIENT COMPOSITIONS AND SYSTEMS AND METHODS OF USING SAME” (Nanochem Solutions, Inc., priority 2020, published 2022).

N[C@@H](CC(=O)O)C(=O)O [L-aspartic acid]
pH at which the alpha carboxyl deprotonates (alpha carboxyl group): about 2.09 | pH at which the carboxyl side group deprotonates (carboxyl side group): about 3.86
